The text below walks through data of US20110230478A1 (Bayer ScienceCrop AG, priority 2008, published 2011).

For one data set, the system named is Fusarium proliferatum. In words: Production of Fumonisin FB1 by Fusarium proliferatum (microtitre plate, FB1 by HPLC-MS/MS, growth by OD). Type of data set: cell-based. Conditions: for pI50 Fum: FB1 concentration in medium after 6 days at 20° C., HPLC-MS/MS; for pI50 growth: OD620 at the beginning and after 6 days.
Data set [1] in a line: logP by HPLC on reversed-phase columns (C 18), EEC Directive 79/831 Annex V.A8. Conditions: for chromatographic logP: reversed-phase HPLC column (C 18), pH 2.3, pH 2.3, 0.1% aqueous phosphoric acid and acetonitrile, read-out: logP [a]. The format is physicochemical.
A further data set relates to Fusarium graminearum. The format is cell-based. Conditions: 50 µM.
A further data set concerns Gibberella zeae. Conditions: in vivo.
Setting [2] is: method marker [b], footnote not given, compound 68 value matches logP (pH 2.3).
Setting [3] is: values marked [b], footnote not given.
Where [4] appears, read: values marked [c], footnote not given.
Setting [5] is: method marker [a], footnote not given.
[6] abbreviates: method marker [b] (compound 257: pH2.7).

`COCC(C)Nc1nc(Nc2ccc(OC)c(OC)c2)ncc1Br` (centres unmarked) [Example 74]: in the data set on Fusarium proliferatum, the “pI50 Fum” value was 4.6 and the pI50 growth is given as below 4.3. For the same molecule, in data set [1] (setting [2]), the logP is 1.55[b].

In the case of `CC(C)Nc1nc(Nc2ccc(C(=O)N(C)C)cc2)ncc1Cl` [Example 234], in the data set on Fusarium proliferatum, the “pI50 Fum” value came out at 5.3 and the pI50 growth came out at 4.6. In addition, in data set [1] (setting [3]), the logP is 1.44[b]. In data set [1] (setting [4]), the logP was 2.27[c];.

For the molecule `CN(C)S(=O)(=O)c1cccc(Nc2ncc(Cl)c(NC(C)(C)C)n2)c1` [Example 51], in the data set with Fusarium proliferatum, the pI50 growth is below 4.3. For the same molecule, in data set [1] (setting [5]), the logP is 2.73[a].

Regarding `CCc1cccc(Nc2ncc(Cl)c(NC(C)C)n2)c1` [Example 230], the “growth inhibition of Fusarium graminearum” value in the data set with Fusarium graminearum is reported as 86%. Besides, the “inhibitory activity of DON/AcDON” value with Fusarium graminearum was above 80%. Besides, the logP in data set [1] (setting [3]) is 2.33[b]; in data set [1] (setting [4]), 4.25[c];.

Turning to `COCC(C)Nc1nc(Nc2cccc(OC)c2)ncc1Br` (centres unmarked) [Example 109], in the data set on Fusarium proliferatum, the “pI50 Fum” value is listed as 4.7 and the pI50 growth is below 4.3. The logP in data set [1] (setting [2]) is 1.9[b].

Regarding `C=CCNC(=O)c1ccc(Nc2ncc(Cl)c(NC(C)COC)n2)cc1` (racemic) [Example 136], in the data set with Fusarium proliferatum, the “pI50 Fum” value was found to be 4.4 and the pI50 growth is recorded as below 4.3. In data set [1] (setting [3]), the logP is 1.64[b].

For the molecule `CSc1cccc(Nc2ncc(Cl)c(NC(C)C)n2)c1` [Example 173], in the data set with Fusarium proliferatum, the “pI50 Fum” value amounted to 4.8 and the pI50 growth is below 4.3. For the same molecule, in data set [1] (values marked [a], pH 2.3), the logP was 2.36[a];. The logP in data set [1] (setting [4]) is 3.89[c]. Moreover, the efficacy in the data set on Gibberella zeae was at least 80%.

In the data set on Fusarium proliferatum, `CCCC(CC)Nc1nc(Nc2ccccc2)ncc1Br` (centres unmarked) [Example 228] yielded a pI50 growth below 4.3. For the same molecule, the logP in data set [1] (values marked [a], pH 2.3) was 2.44[a].

Take `CC(C)Nc1nc(Nc2cccc(O)c2)ncc1Cl` [Example 214]: in the data set on Fusarium proliferatum, the “pI50 Fum” value is 6 and the pI50 growth was below 4.3. Also, in data set [1] (setting [3]), the logP is 1.39[b].

`COCC(C)Nc1nc(Nc2ccc(C(C)=O)cc2)ncc1Cl` (centres unmarked) [Example 152]: in the data set on Fusarium proliferatum, the “pI50 Fum” value is given as 5 and the pI50 growth is below 4.3. Moreover, in data set [1] (setting [3]), the logP is 2.02[b].

Regarding `CNC(=O)Oc1cccc(Nc2ncc(Cl)c(NC(C)C)n2)c1` [Example 203], the pI50 growth in the data set with Fusarium proliferatum came to 4.6. For the same molecule, in data set [1] (setting [3]), the logP is 1.53[b].

`CC(C)Nc1nc(Nc2ccc(CC(=O)C(C)(C)C)cc2)ncc1Cl` [Example 199] registered a pI50 growth with Fusarium proliferatum of 4.9. Further, the logP in data set [1] (setting [3]) was 2.3[b].

For the molecule `CC(=O)Nc1cccc(Nc2ncc(Cl)c(NC(C)C)n2)c1` [Example 195], the logP in data set [1] (setting [3]) is 1.39[b].

`CCNc1nc(Nc2ccccc2)ncc1Cl` [Example 240]: the logP in data set [1] (setting [3]) is 1.38[b]; in data set [1] (setting [4]), 3.03[c];.

As to `CCC(CO)Nc1nc(Nc2ccc(N3CCN(C(=O)OC(C)(C)C)CC3)cc2)ncc1Cl` (centres unmarked) [Example 23], the logP in data set [1] (setting [5]) is 2.02[a].

On to `COC(=O)Nc1cccc(Nc2ncc(Cl)c(NC(C)C)n2)c1` [Example 204], for which the logP in data set [1] (setting [3]) is 1.59[b].

On to `CC(C)N(C)c1nc(Nc2cccc(S(=O)(=O)N(C)C)c2)ncc1Cl` [Example 43], for which the logP in data set [1] (setting [5]) was 2.96[a].

As to `CC(C)CNc1nc(Nc2ccccc2)ncc1Cl` [Example 279], in data set [1] (setting [6]), the logP was 2.02[b].

With `COCC(C)Nc1nc(Nc2ccc(OC)cc2)ncc1Br` (centres unmarked) [Example 110], the logP in data set [1] (setting [2]) is 1.63[b].

`CC(C)Nc1nc(Nc2cccc(Cn3cccn3)c2)ncc1Cl` [Example 298]: in data set [1] (setting [6]), the logP is 1.7[b].

For `Clc1cnc(Nc2ccccc2)nc1NC1CCCC1` [Example 254], the logP in data set [1] (setting [6]) was 2.28[b].

Consider `CC(C)(C)OC(=O)N1CCN(c2ccc(Nc3ncc(Cl)c(NC4CCCCC4)n3)cc2)CC1` [Example 264], for which, in data set [1] (setting [6]), the logP was 2.95[b].

With `CCC(CO)Nc1nc(Nc2ccc(S(=O)(=O)N(C)C)cc2)ncc1Cl` (centres unmarked) [Example 22], the logP in data set [1] (setting [5]) is 1.83[a].

`CC(C)N(C)S(=O)(=O)Cc1cccc(N)c1` [IV-6, 1-(3-aminophenyl)-N-methyl-N-(propan-2-yl)methanesulphonamide]: in data set [1], the chromatographic logP turned out to be 1.08.

As for `CC(C)Nc1nc(Nc2ccc3[nH]c(=O)oc3c2)ncc1Cl` [Example 205], the logP in data set [1] (setting [3]) is 1.44[b].

For `COCC(C)Nc1nc(Nc2cccc(NC(=O)OC)c2)ncc1Cl` (centres unmarked) [Example 153], in data set [1] (setting [3]), the logP is 1.59[b].

Regarding `COCC(C)Nc1nc(Nc2cccc(SC)c2)ncc1Cl` (centres unmarked) [Example 101], in data set [1] (setting [2]), the logP was 2.13[b].

For the molecule `Cc1cccc(Nc2ncc(Cl)c(NC(C)C)n2)c1` [Example 229], the logP in data set [1] (setting [3]) was 2[b]; in data set [1] (setting [4]), 3.84[c];.

For the molecule `O=[N+]([O-])c1cccc(CS(=O)(=O)NCc2ccccc2)c1` [IV-4, N-(benzyl)-1-(3-nitrophenyl)methanesulphonamide], the chromatographic logP in data set [1] was found to be 2.43.

For the molecule `CC(=O)c1cccc(Nc2ncc(Cl)c(NC(C)C)n2)c1.Cl` [Example 50], the logP in data set [1] (setting [5]) is 1.79[a].

Take `COCC(C)Nc1nc(Nc2ccc(SC)cc2)ncc1Cl` (centres unmarked) [Example 149]: in data set [1] (setting [3]), the logP is 2.06[b].

On to `COCC(C)Nc1nc(Nc2ccc(O)c(C)c2)ncc1Cl` (centres unmarked) [Example 171], for which the logP in data set [1] (setting [3]) was 1.39[b].

Regarding `COCC(C)Nc1nc(Nc2ccc(F)cc2F)ncc1Br` (centres unmarked) [Example 73], in data set [1] (setting [2]), the logP is 2.16[b].

For the molecule `CCN(C)S(=O)(=O)Cc1cccc([N+](=O)[O-])c1` [IV-1, N-Ethyl-N-methyl-1-(3-nitrophenyl)methanesulphonamide], the chromatographic logP in data set [1] came out at 2.05.

In the case of `CCC(C)Nc1nc(Nc2ccccc2)ncc1Cl` (centres unmarked) [Example 296], the logP in data set [1] (setting [6]) is 2.05[b].

As for `CNc1nc(Nc2ccc(S(=O)(=O)N(C)C)cc2)ncc1Cl` [Example 26], in data set [1] (setting [5]), the logP was 1.61[a].

For `COCC(C)Nc1nc(Nc2cccc(C)c2)ncc1Cl` (centres unmarked) [Example 225], the logP in data set [1] (setting [3]) was 1.98[b].

As for `COCCNc1nc(Nc2ccc(C(C)C)cc2)ncc1Cl` [Example 11], the logP in data set [1] (setting [5]) was 2.09[a].

For `CNC(=O)Oc1cccc(Nc2ncc(Cl)c(NC(C)COC)n2)c1` (racemic) [Example 144], the logP in data set [1] (setting [3]) is 1.48[b].

For the molecule `CC(=O)c1ccc(Nc2ncc(Cl)c(NC(C)C)n2)cc1` [Example 200], the logP in data set [1] (setting [3]) was 2.06[b].

As to `CC(C)Nc1nc(Nc2cccc(CS(=O)(=O)N(C)C(C)C)c2)ncc1Cl` [Example 242], the values for the logP in data set [1] (setting [3]) and in data set [1] (setting [4]) were 2.18[b] and 3.44[c];, respectively.

Consider `CSC[C@H](C)Nc1nc(Nc2ccc(S(=O)(=O)N(C)C)cc2)ncc1Cl` [Example 30], for which the logP in data set [1] (setting [5]) is 2.59[a].

For `COCCNc1nc(Nc2cc(OC)c(OC)c(OC)c2)ncc1Cl` [Example 1], the logP in data set [1] (setting [5]) was 1.45[a];; in data set [1] (setting [2]) it was 1.45[b].

As to `CCC(=O)c1ccc(Nc2ncc(Cl)c(NC(C)COC)n2)cc1` (centres unmarked) [Example 104], the logP in data set [1] (setting [2]) is 2.36[b].

With `CCN(CC)c1nc(Nc2ccccc2)ncc1Cl` [Example 60], in data set [1] (setting [5]), the logP is 2.29[a].

With `CC(C)Nc1nc(Nc2ccc(O)cc2)ncc1Cl` [Example 213], the logP in data set [1] (setting [3]) was 1.24[b].
